Results reported in patent US11564927B2, “Therapeutic compositions, combinations, and methods of use” (Verastem, Inc., priority 2015, dated 2023).

Tests used:
[1] = test system: Primary human CD8+ T-cells; experiment: CD8+ T-cell proliferation, BrdU incorporation; type: cell-based; settings: 72 hours, anti-CD3/anti-CD28 coated beads, BrdU incorporation (FIG. 1)
Experimental: Primary human CD8+ T-cells isolated from healthy donor PBMCs were incubated in the presence of anti-CD^3/anti-CD28 coated beads with increasing concentrations of VS-4718 or VS-6063 for 72-hours and assayed for BrdU incorporation as a measure of new DNA synthesis.
CD8+ T cells were isolated from fresh, healthy human PBMCs by negative immunomagnetic bead separation. Purified CD8+ T cells were plated on CD3-coated plates in the presence or absence of VS-4718, VS-6063, or GSK2256098 for 72 hours. Assay wells were pulsed with BrdU for the last 3-4 hours of culture and subjected to a BrdU-incorporation assay for the determination of actively proliferating cells. Data shown in FIG. 5 are presented as fold-change vs. DMSO control wells.

[2] = test system: syngeneic MC38 colorectal tumors; experiment: Survival of mice bearing MC38 colorectal tumors; type: in vivo, mouse
Experimental: Based on the inhibition of tumor-associated macrophages and enhancement of CD8+ T-cells, potentiation of FAK/PYK2 inhibitors on the anti-tumor efficacy of an anti-PD-1 monoclonal antibody in syngeneic mouse tumor models was investigated. Mice bearing established syngeneic MC38 colorectal tumors were treated with VS-4718 for 5 days before combination treatment with anti-PD1 antibody along with continued VS-4718 administration. Combination of VS-4718 with anti-PD1 extended the median overall survival to 42 days relative to 21, 25 and 28 day median overall survival with vehicle control, single agent anti-PD-1 and single agent VS-4718, respectively (FIG. 2).

CNC(=O)c1ccccc1Nc1cc(Nc2ccc(N3CCOCC3)cc2OC)ncc1C(F)(F)F [VS-4718]
proliferation of CD8+ cytotoxic T-cells [1]: stimulate proliferation
mice still surviving ([2]; day 56, MC38 model): no surviving mice
median overall survival ([2]; mice with established MC38 tumors, VS-4718 for 5 days before combination with anti-PD1 (FIG. 2)): 28 days

Cc1nc(Nc2ncc(C(=O)Nc3c(C)cccc3Cl)s2)cc(N2CCN(CCO)CC2)n1 [dasatinib]
proliferation of CD8+ cytotoxic T-cells [1]: potently impair the proliferation

CC(=O)Nc1cccc(-n2c(=O)n(C3CC3)c(=O)c3c(Nc4ccc(I)cc4F)n(C)c(=O)c(C)c32)c1 [trametinib]
proliferation of CD8+ cytotoxic T-cells [1]: potently impair the proliferation
